Results from patent US10835524B2, “Compositions for the treatment of pancreatic cancer and uses thereof” (University of Florida Research Foundation, Incorporated, priority 2015, dated 2020).

How the values were obtained:
[1] = test system: 4 KRAS mutant PDAC cell lines (MIA PaCa-2, Panc-1, T182, E549); assay: Viability of KRAS mutant PDAC cell lines after single-drug treatment, MTT assay at 72 hours; type: cell-based, human; murine; settings: 4 PDAC cell lines
Method: We treated each cell line with the mTOR inhibitor Everolimus, the AKT inhibitor MK-2206, the dual PI-3K/mTOR inhibitor BEZ235, and the MEK inhibitor Selumetinib, or Compound P (mefloquine), prior to viability assessment at 72 hours via MTT assay.
To determine optimal doses for combination, we first analyzed the viability dose-response curves for each drug. […] The optimal dose for each drug was then serially diluted by one-half from the chosen optimal dose to 1/32nd of the chosen optimal dose, such that six combination points could be analyzed. Because the ratio of each drug in each experiment remained constant in all serial dilutions, we refer to this method as the “fixed molar ratio method”.

[2] = target: human TS (Homo sapiens, UniProt P04818); assay: Inhibition of the enzymatic activity of thymidylate synthase; type: biochemical
[3] = test system: PDAC; assay: Inhibition of PDAC in vivo by combination with KRAS/PI-3K/AKT/mTOR pathway inhibitors; settings: partner inhibitors not named

Sequence of human TS (P04818 whole entry): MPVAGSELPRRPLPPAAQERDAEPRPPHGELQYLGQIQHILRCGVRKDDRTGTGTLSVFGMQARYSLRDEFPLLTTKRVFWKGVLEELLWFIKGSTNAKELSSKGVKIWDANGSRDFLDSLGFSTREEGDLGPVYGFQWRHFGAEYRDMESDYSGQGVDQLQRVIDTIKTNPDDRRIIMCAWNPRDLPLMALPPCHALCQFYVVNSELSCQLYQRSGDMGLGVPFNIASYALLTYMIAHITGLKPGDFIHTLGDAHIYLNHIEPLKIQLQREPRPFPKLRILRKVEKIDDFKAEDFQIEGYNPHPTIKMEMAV

SMILES	growth inhibition effect on cell viability [1]	mode of inhibition of the enzymatic activity of human TS [2]	synergy with inhibitors of the KRAS/PI-3K/AKT/mTOR pathway to inhibit PDAC in vivo [3]
Cn1c(=O)n(-c2ccc(C(C)(C)C#N)cc2)c2c3cc(-c4cnc5ccccc5c4)ccc3ncc21 [BEZ235, 2-methyl-2-[4-(3-methyl-2-oxo-8-quinolin-3-ylimidazo[4,5-c]quinolin-1-yl)phenyl]propanenitrile]	fully cytotoxic in 3 out of 4 cell lines		
CO[C@H]1C[C@@H]2CC[C@@H](C)[C@@](O)(O2)C(=O)C(=O)N2CCCC[C@H]2C(=O)O[C@H]([C@H](C)C[C@@H]2CC[C@@H](OCCO)[C@H](OC)C2)CC(=O)[C@H](C)/C=C(\C)[C@@H](O)[C@@H](OC)C(=O)[C@H](C)C[C@H](C)/C=C/C=C/C=C/1C [Everolimus, (1S,9R,15R,16E,18R,19R,21S,23R,24E,26E,28E,30S,32R,35S)-1,18-dihydroxy-12-[(2S)-1-[(1S,3R,4R)-4-(2-hydroxyethoxy)-3-methoxycyclohexyl]propan-2-yl]-19,30-dimethoxy-15,17,21,23,29,35-hexamethyl-11,36-dioxa-4-azatricyclo[30.3.1.0^4,^9]hexatriaconta-16,24,26,28-tetraene-2,3,10,14,20-pentone]	potently cytostatic		
Cl.Cl.NC1(c2ccc(-c3nc4ccn5c(=O)[nH]nc5c4cc3-c3ccccc3)cc2)CCC1 [MK-2206, 8-[4-(1-aminocyclobutyl)phenyl]-9-phenyl-2H-[1,2,4]triazolo[3,4-f][1,6]naphthyridin-3-one; dihydrochloride]	fully cytotoxic in 3 out of 4 cell lines		
OC(c1cc(C(F)(F)F)nc2c(C(F)(F)F)cccc12)C1CCCCN1 (stereo not drawn) [Compound P, [2,8-bis(trifluoromethyl)quinolin-4-yl]-piperidin-2-ylmethanol]	cytotoxic in all cell lines tested	partial mixed-type	synergizes
